Results published in paper PMC6738068 (British Journal of Cancer, 2019).

Experiments:
CYP3A4 = system: CYP3A4; design: method as in printed; conditions: preclinical testing, ref not given; cited from earlier work
Bmx = system: Bmx; design: method as in printed; conditions: preclinical, ref not given; cited from earlier work
BCRP = system: BCRP; design: method as in printed; conditions: preclinical testing, ref not given; cited from earlier work
[1] = system: patients with advanced solid tumours; assay: Phase 1 safety: treatment-related adverse events (CTCAE v4.03); format: in vivo, human
Protocol: All patients who received at least one dose of CFI-400945 were included in analyses of the safety-evaluable population. Data cut-off for the safety-evaluable population was June 5, 2018. Adverse events (AEs) were assessed according to the National Cancer Institute (NCI) Common Terminology Criteria for Adverse Events (CTCAE) v4.03. Investigators determined the causal relationship of an AE as either unrelated, possibly, probably, or related to study drug. Further information is available in Supplementary Information 1d.
Investigators managed any AE until resolution, stabilization, or until the AE was considered no longer clinically significant. All AE and serious AE (SAE) were recorded in source documents and individual case report forms from the time of first dose of study drug until 30 days following the last dose of study drug.
Safety evaluations were conducted at screening and during Cycle 1 on Day 1, 2, 4, 8, 11, 15, 22, and 28. In the expansion cohort, following the run-in amendment, safety evaluations were conducted on Cycle 0 Day 1, 2, 4, 8, and 11, then as above for Cycle 1. Evaluations included pre-defined combinations of medical history, physical examination, vital signs, clinical laboratory studies, and ECOG performance status.

FGFR2 = system: FGFR2; design: method as in printed; conditions: preclinical, ref not given; cited from earlier work
PLK1 = system: PLK1; design: method as in printed; conditions: preclinical, ref not given; cited from earlier work
Ros = system: Ros; design: method as in printed; conditions: preclinical, ref not given; cited from earlier work
[2] = system: patient-derived xenograft (PDX) models across multiple tumour types; conditions: preclinical, including PDX models; cited from earlier work
OCT1 = system: OCT1; design: method as in printed; conditions: preclinical testing, ref not given; cited from earlier work
OATP1B3 = system: OATP1B3; design: method as in printed; conditions: preclinical testing, ref not given; cited from earlier work
TrkA = system: TrkA; design: method as in printed; conditions: preclinical, ref not given; cited from earlier work
[3] = system: cytochrome P450 (CYP) enzyme 1A2; design: method as in printed; conditions: preclinical testing, ref not given; cited from earlier work
CYP1A2 = system: CYP1A2; design: method as in printed; conditions: preclinical testing, ref not given; cited from earlier work
PLK3 = system: PLK3; design: method as in printed; conditions: preclinical, ref not given; cited from earlier work
[4] = safety-evaluable population (n = 52)

SMILES: COc1ccc2c(c1)[C@]1(C[C@H]1c1ccc3c(/C=C/c4ccc(CN5C[C@@H](C)O[C@@H](C)C5)cc4)n[nH]c3c1)C(=O)N2 [CFI-400945]
- time-dependent inhibition of CYP3A4 (CYP3A4): time-dependent inhibitor
- IC50 (Bmx): < 100 nM
- inhibition of BCRP (BCRP): inhibitor
- grade 2 neutropenia ([1]; 48 mg dose level): one patient
- long-term tolerability: time one patient remained on treatment ([1]; 48 mg, at data cut-off): > 3 years
- patients dose reduced ([1]; 64 mg): No patients
- patients dose reduced ([1]; 3 patients, at 72 mg and 96 mg dose levels, recurrent neutropenia): 6%
- Anorexia, treatment-related, Grade 1/2 ([1]; 3–32 mg cohort (n = 21)): 4 (19) N (%)
- Anorexia, treatment-related, Grade 3/4 ([1]; 3–32 mg cohort (n = 21)): 0 (0) N (%)
- Dehydration, treatment-related, Grade 1/2 ([1]; 3–32 mg cohort (n = 21)): 1 (5) N (%)
- Dehydration, treatment-related, Grade 3/4 ([1]; 3–32 mg cohort (n = 21)): 0 (0) N (%)
- Diarrhoea, treatment-related, Grade 1/2 ([1]; 3–32 mg cohort (n = 21)): 4 (19) N (%)
- Diarrhoea, treatment-related, Grade 3/4 ([1]; 3–32 mg cohort (n = 21)): 0 (0) N (%)
- Dyspepsia, treatment-related, Grade 1/2 ([1]; 3–32 mg cohort (n = 21)): 1 (5) N (%)
- Dyspepsia, treatment-related, Grade 3/4 ([1]; 3–32 mg cohort (n = 21)): 0 (0) N (%)
- Fatigue, treatment-related, Grade 1/2 ([1]; 3–32 mg cohort (n = 21)): 5 (24) N (%)
- Fatigue, treatment-related, Grade 3/4 ([1]; 3–32 mg cohort (n = 21)): 0 (0) N (%)
- Hypomagnesaemia, treatment-related, Grade 1/2 ([1]; 3–32 mg cohort (n = 21)): 0 (0) N (%)
- Hypomagnesaemia, treatment-related, Grade 3/4 ([1]; 3–32 mg cohort (n = 21)): 0 (0) N (%)
- Nausea, treatment-related, Grade 1/2 ([1]; 3–32 mg cohort (n = 21)): 3 (14) N (%)
- Nausea, treatment-related, Grade 3/4 ([1]; 3–32 mg cohort (n = 21)): 0 (0) N (%)
- Neutropenia, treatment-related, Grade 1/2 ([1]; 3–32 mg cohort (n = 21)): 0 (0) N (%)
- Neutropenia, treatment-related, Grade 3/4 ([1]; 3–32 mg cohort (n = 21)): 0 (0) N (%)
- Vomiting, treatment-related, Grade 1/2 ([1]; 3–32 mg cohort (n = 21)): 1 (5) N (%)
- Vomiting, treatment-related, Grade 3/4 ([1]; 3–32 mg cohort (n = 21)): 0 (0) N (%)
- Anorexia, All trAEs ([1]; 3–96 mg cohort (n = 52)): 10 (19) N (%)
- Dehydration, All trAEs ([1]; 3–96 mg cohort (n = 52)): 3 (6) N (%)
- Diarrhoea, All trAEs ([1]; 3–96 mg cohort (n = 52)): 11 (21) N (%)
- Dyspepsia, All trAEs ([1]; 3–96 mg cohort (n = 52)): 3 (6) N (%)
- Fatigue, All trAEs ([1]; 3–96 mg cohort (n = 52)): 19 (37) N (%)
- Hypomagnesaemia, All trAEs ([1]; 3–96 mg cohort (n = 52)): 3 (6) N (%)
- Nausea, All trAEs ([1]; 3–96 mg cohort (n = 52)): 14 (27) N (%)
- Neutropenia, All trAEs ([1]; 3–96 mg cohort (n = 52)): 11 (21) N (%)
- Vomiting, All trAEs ([1]; 3–96 mg cohort (n = 52)): 4 (8) N (%)
- grade 3/4 neutropenic events occurring in Cycle 1 ([1]; 6/10 events): 60%
- grade 3/4 treatment-related neutropenia, patients ([1]; 10/52 patients, all dose levels): 19%
- patients with dose interruptions ([1]; 27 of 52 patients): 52%
- Anorexia, treatment-related, Grade 1/2 ([1]; 48–64 mg cohort (n = 18)): 2 (11) N (%)
- Anorexia, treatment-related, Grade 3/4 ([1]; 48–64 mg cohort (n = 18)): 0 (0) N (%)
- Dehydration, treatment-related, Grade 1/2 ([1]; 48–64 mg cohort (n = 18)): 1 (6) N (%)
- Dehydration, treatment-related, Grade 3/4 ([1]; 48–64 mg cohort (n = 18)): 0 (0) N (%)
- Diarrhoea, treatment-related, Grade 1/2 ([1]; 48–64 mg cohort (n = 18)): 3 (17) N (%)
- Diarrhoea, treatment-related, Grade 3/4 ([1]; 48–64 mg cohort (n = 18)): 1 (6) N (%)
- Dyspepsia, treatment-related, Grade 1/2 ([1]; 48–64 mg cohort (n = 18)): 1 (6) N (%)
- Dyspepsia, treatment-related, Grade 3/4 ([1]; 48–64 mg cohort (n = 18)): 0 (0) N (%)
- Fatigue, treatment-related, Grade 1/2 ([1]; 48–64 mg cohort (n = 18)): 9 (50) N (%)
- Fatigue, treatment-related, Grade 3/4 ([1]; 48–64 mg cohort (n = 18)): 0 (0) N (%)
- Hypomagnesaemia, treatment-related, Grade 1/2 ([1]; 48–64 mg cohort (n = 18)): 1 (6) N (%)
- Hypomagnesaemia, treatment-related, Grade 3/4 ([1]; 48–64 mg cohort (n = 18)): 0 (0) N (%)
- Nausea, treatment-related, Grade 1/2 ([1]; 48–64 mg cohort (n = 18)): 5 (28) N (%)
- Nausea, treatment-related, Grade 3/4 ([1]; 48–64 mg cohort (n = 18)): 0 (0) N (%)
- Neutropenia, treatment-related, Grade 1/2 ([1]; 48–64 mg cohort (n = 18)): 1 (6) N (%)
- Neutropenia, treatment-related, Grade 3/4 ([1]; 48–64 mg cohort (n = 18)): 3 (17) N (%)
- Vomiting, treatment-related, Grade 1/2 ([1]; 48–64 mg cohort (n = 18)): 1 (6) N (%)
- Vomiting, treatment-related, Grade 3/4 ([1]; 48–64 mg cohort (n = 18)): 1 (6) N (%)
- Anorexia, treatment-related, Grade 1/2 ([1]; 72–96 mg cohort (n = 13)): 4 (31) N (%)
- Anorexia, treatment-related, Grade 3/4 ([1]; 72–96 mg cohort (n = 13)): 0 (0) N (%)
- Dehydration, treatment-related, Grade 1/2 ([1]; 72–96 mg cohort (n = 13)): 1 (8) N (%)
- Dehydration, treatment-related, Grade 3/4 ([1]; 72–96 mg cohort (n = 13)): 0 (0) N (%)
- Diarrhoea, treatment-related, Grade 1/2 ([1]; 72–96 mg cohort (n = 13)): 3 (23) N (%)
- Diarrhoea, treatment-related, Grade 3/4 ([1]; 72–96 mg cohort (n = 13)): 0 (0) N (%)
- Dyspepsia, treatment-related, Grade 1/2 ([1]; 72–96 mg cohort (n = 13)): 1 (8) N (%)
- Dyspepsia, treatment-related, Grade 3/4 ([1]; 72–96 mg cohort (n = 13)): 0 (0) N (%)
- Fatigue, treatment-related, Grade 1/2 ([1]; 72–96 mg cohort (n = 13)): 5 (38) N (%)
- Fatigue, treatment-related, Grade 3/4 ([1]; 72–96 mg cohort (n = 13)): 0 (0) N (%)
- Hypomagnesaemia, treatment-related, Grade 1/2 ([1]; 72–96 mg cohort (n = 13)): 2 (15) N (%)
- Hypomagnesaemia, treatment-related, Grade 3/4 ([1]; 72–96 mg cohort (n = 13)): 0 (0) N (%)
- Nausea, treatment-related, Grade 1/2 ([1]; 72–96 mg cohort (n = 13)): 6 (46) N (%)
- Nausea, treatment-related, Grade 3/4 ([1]; 72–96 mg cohort (n = 13)): 0 (0) N (%)
- Neutropenia, treatment-related, Grade 1/2 ([1]; 72–96 mg cohort (n = 13)): 0 (0) N (%)
- Neutropenia, treatment-related, Grade 3/4 ([1]; 72–96 mg cohort (n = 13)): 7 (54) N (%)
- Vomiting, treatment-related, Grade 1/2 ([1]; 72–96 mg cohort (n = 13)): 1 (8) N (%)
- Vomiting, treatment-related, Grade 3/4 ([1]; 72–96 mg cohort (n = 13)): 0 (0) N (%)
- median time for neutrophils to recover to grade ≤1 ([1]; in vivo): 7 days
- median time to first grade 3/4 neutropenic event ([1]; in vivo): 18 days
- time for neutrophils to recover to grade ≤1, range ([1]; in vivo): 6 to 14 days
- time to first grade 3/4 neutropenic event, range ([1]; in vivo): 14 to 126 days
- treatment-related AEs leading to study discontinuation ([1]; one DLT at 72 mg, one DLT in 64 mg cohort): two patients
- treatment-related anorexia, patients [1, 4]: 19%
- treatment-related dehydration, patients [1, 4]: 6%
- treatment-related diarrhoea, patients [1, 4]: 21%
- treatment-related dyspepsia, patients [1, 4]: 6%
- treatment-related fatigue, patients [1, 4]: 37%
- treatment-related hypomagnesaemia, patients [1, 4]: 6%
- treatment-related neutropenia, patients [1, 4]: 21%
- treatment-related vomiting, patients [1, 4]: 8%
- IC50 (FGFR2): < 100 nM
- IC50 (PLK1): > 50000 nM
- IC50 (Ros): < 100 nM
- in vivo antitumour activity [2]: robust in vivo antitumour activity
- inhibition of OCT1 (OCT1): inhibitor
- inhibition of OATP1B3 (OATP1B3): inhibitor
- IC50 (TrkA): < 100 nM
- induction of CYP1A2 [3]: inducer
- time-dependent inhibition of CYP1A2 (CYP1A2): time-dependent inhibitor
- IC50 (PLK3): > 50000 nM
